Measurements as given in the supplement of paper PMC10307832.

What was measured:
Experiment in all cases: relative viability (nuclei count vs DMSO), 5 days (fraction); higher = more cells survive
Sunitinib + Linsitinib = compound: CCN(CC)CCNC(=O)c1c(C)[nH]c(/C=C2\C(=O)Nc3ccc(F)cc32)c1C [Sunitinib] + C[C@]1(O)C[C@@H](c2nc(-c3ccc4ccc(-c5ccccc5)nc4c3)c3c(N)nccn32)C1 [Linsitinib] (partner 1 µM)
In short: (§1)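 Values are medians from duplicate plates. Each reflects relative viability, defined as the nuclei count of treated wells over that of vehicle wells. Lung cancer cell lines in 1536-well plates were pin-tool dosed one day after seeding with one drug alone or with a fixed anchor-drug dose plus five library-drug doses (not always all listed) in √10 steps, then fixed, stained and imaged at 4× after 5 days.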

Sunitinib + Lapatinib = compound: CCN(CC)CCNC(=O)c1c(C)[nH]c(/C=C2\C(=O)Nc3ccc(F)cc32)c1C [Sunitinib] + CS(=O)(=O)CCNCc1ccc(-c2ccc3ncnc(Nc4ccc(OCc5cccc(F)c5)c(Cl)c4)c3c2)o1 [Lapatinib] (partner 2 µM)
In short: as §1

Sunitinib + OSI-027 = compound: CCN(CC)CCNC(=O)c1c(C)[nH]c(/C=C2\C(=O)Nc3ccc(F)cc32)c1C [Sunitinib] + COc1cccc2cc(-c3nc([C@H]4CC[C@H](C(=O)O)CC4)n4ncnc(N)c34)[nH]c12 [OSI-027] (partner 0.5 µM)
In short: as §1

Sunitinib + Alpelisib = compound: CCN(CC)CCNC(=O)c1c(C)[nH]c(/C=C2\C(=O)Nc3ccc(F)cc32)c1C [Sunitinib] + Cc1nc(NC(=O)N2CCC[C@H]2C(N)=O)sc1-c1ccnc(C(C)(C)C(F)(F)F)c1 [Alpelisib] (partner 2 µM)
In short: as §1

Row | Cell Line | relative viability (Sunitinib + Linsitinib; first compound 0.02 µM) | relative viability (Sunitinib + Linsitinib; first compound 0.06325 µM) | relative viability (Sunitinib + Linsitinib; first compound 0.2 µM) | relative viability (Sunitinib + Linsitinib; first compound 0.6325 µM) | relative viability (Sunitinib + Linsitinib; first compound 2 µM) | relative viability (Sunitinib + Lapatinib; first compound 0.02 µM) | relative viability (Sunitinib + Lapatinib; first compound 0.06325 µM) | relative viability (Sunitinib + Lapatinib; first compound 0.2 µM) | relative viability (Sunitinib + Lapatinib; first compound 0.6325 µM) | relative viability (Sunitinib + Lapatinib; first compound 2 µM) | relative viability (Sunitinib + OSI-027; first compound 0.02 µM) | relative viability (Sunitinib + OSI-027; first compound 0.06325 µM) | relative viability (Sunitinib + OSI-027; first compound 0.2 µM) | relative viability (Sunitinib + OSI-027; first compound 0.6325 µM) | relative viability (Sunitinib + OSI-027; first compound 2 µM) | relative viability (Sunitinib + Alpelisib; first compound 0.02 µM) | relative viability (Sunitinib + Alpelisib; first compound 0.06325 µM) | relative viability (Sunitinib + Alpelisib; first compound 0.6325 µM) | relative viability (Sunitinib + Alpelisib; first compound 2 µM) | relative viability (Sunitinib + Alpelisib; first compound 0.2 µM)
1 | NCI-H358 | 0.718 | 0.685 | 0.863 | 0.592 | 0.447 | 0.421 | 0.6 | 0.457 | 0.514 | 0.377 | 0.685 | 0.814 | 0.878 | 0.691 | 0.38 | 0.902 | 0.803 | 0.762 | 0.451 | –
2 | NCI-H460 | 0.662 | – | 0.95 | 0.927 | 0.699 | 0.85 | – | 1.3 | 1.08 | 0.927 | 0.593 | 0.717 | 0.78 | 0.768 | 0.467 | 0.454 | 0.567 | 0.661 | 0.258 | 0.615
3 | NCI-H520 | 0.86 | 1.15 | 0.911 | 0.975 | 1.01 | 0.786 | – | 0.964 | 0.916 | – | 0.249 | 0.286 | 0.321 | 0.292 | 0.3 | 1.01 | 0.841 | – | 0.729 | 0.867
4 | NCI-H596 | 1 | 1.02 | 1.21 | 1.14 | 0.911 | 0.987 | 1.14 | 1.22 | 1.19 | 1.08 | 0.731 | 0.799 | 0.787 | 0.699 | 0.552 | 0.476 | 0.596 | 0.485 | 0.42 | 0.604
5 | NCI-H647 | – | 1.23 | 1.28 | 0.991 | 0.969 | 0.939 | 1.26 | 1.19 | 1.13 | 0.913 | 0.631 | 0.725 | 0.562 | 0.821 | 0.575 | 1.05 | 1.04 | 1.21 | 0.82 | 1.36
6 | NCI-H650 | 0.9 | 0.912 | 1.09 | – | 1.08 | 1.09 | 1.33 | 0.807 | 0.925 | 0.964 | 0.535 | 0.553 | 0.524 | 0.586 | 0.514 | 0.891 | 0.608 | 1.14 | 1.16 | 1.25
7 | NCI-H661 | 0.488 | 0.513 | 0.496 | 0.572 | 0.598 | 0.433 | 0.453 | 0.527 | 0.582 | 0.448 | 0.646 | 0.785 | 0.801 | 0.767 | 0.704 | 0.597 | 0.547 | 0.582 | 0.759 | 0.515
8 | NCI-H727 | 0.146 | 0.363 | 0.239 | 0.311 | 0.292 | 0.88 | 0.887 | 1.36 | 0.937 | 0.781 | 0.717 | 0.574 | 0.757 | 0.687 | 0.631 | 0.532 | 0.546 | 0.559 | 0.537 | 0.647
9 | NCI-H838 | 0.916 | 0.987 | 1.06 | 1.07 | 0.85 | 0.885 | 1.38 | 1.22 | 1.09 | 0.894 | 0.386 | 0.358 | 0.423 | 0.319 | 0.317 | – | 0.999 | 0.992 | – | 1.16
10 | NCI-H1355 | 0.759 | 0.859 | 0.874 | 0.829 | 0.813 | 1.01 | 1.04 | 1.12 | 1.07 | 1.06 | 0.431 | 0.455 | 0.441 | 0.437 | 0.365 | 0.73 | 0.848 | 0.829 | 0.857 | –
11 | NCI-H1395 | 0.975 | 1.2 | 1.37 | 1.19 | – | 0.947 | 1.17 | 1.07 | 1.16 | 1 | 0.648 | 0.701 | 0.632 | 0.739 | 0.697 | 0.995 | 1.14 | 1.31 | 1.05 | 1.72
12 | NCI-H1437 | 0.975 | 1 | 1.2 | – | 1.02 | 0.789 | 1.1 | 0.928 | 0.793 | 1.03 | 0.873 | 0.918 | – | 0.855 | 0.885 | 0.949 | 0.974 | 1.01 | 0.905 | –
13 | NCI-H1563 | 1.27 | 1.23 | 1.23 | 1.21 | 1.22 | 0.925 | 0.988 | 1.03 | 1.09 | 1.05 | 0.694 | 0.79 | 0.766 | 0.762 | 0.75 | 0.984 | 0.952 | 0.93 | 0.965 | 0.884
14 | NCI-H1651 | 0.882 | 1.07 | 1.09 | 0.998 | 0.96 | 0.766 | 1.21 | 1.06 | 0.893 | 0.923 | 0.57 | – | 0.73 | 0.534 | 0.714 | 0.738 | 0.969 | 1.02 | 0.991 | 1.17
15 | NCI-H1666 | 0.701 | 0.815 | 0.971 | 0.827 | – | – | 0.9 | 0.584 | 0.719 | 0.671 | 0.835 | 0.877 | 0.924 | 0.924 | 0.822 | 0.865 | 0.938 | 1.02 | 0.971 | 1.03
16 | NCI-H1734 | 0.844 | 0.95 | 0.936 | 0.944 | 0.756 | 0.968 | 1.16 | 1.35 | 1.18 | 1.05 | 0.613 | 0.683 | 0.7 | 0.608 | 0.511 | 0.626 | 0.673 | 0.669 | 0.641 | 0.869
17 | NCI-H1755 | 0.996 | 0.98 | – | 0.979 | 0.941 | 1.04 | 1.08 | 1.09 | 1.07 | 1.02 | 0.745 | 0.821 | 0.743 | 0.748 | 0.761 | 0.938 | 0.915 | 0.94 | – | 1.01
18 | NCI-H1792 | 0.556 | 0.479 | 0.419 | 0.511 | 0.561 | 0.885 | 0.952 | 1.07 | 0.809 | 0.923 | 0.667 | 0.716 | 0.829 | 0.691 | 0.481 | 0.578 | 0.56 | 0.682 | 0.824 | 0.78
19 | NCI-H1793 | – | 0.856 | 1.08 | 0.838 | 0.93 | – | 0.675 | 0.828 | 0.651 | 0.484 | 0.278 | 0.245 | 0.252 | 0.274 | 0.194 | – | 0.727 | 0.696 | 0.787 | 0.823
20 | NCI-H1915 | 1.08 | 1.15 | 1.14 | 1.09 | 1.11 | 0.958 | 1.03 | 1.04 | 0.998 | 1.02 | 0.605 | 0.645 | 0.71 | 0.612 | 0.618 | – | 1.09 | 1.06 | 1.11 | 1.13
21 | NCI-H1944 | 1.12 | 1.18 | 1.28 | 1.25 | 1.16 | 0.648 | 0.932 | 0.997 | 0.849 | 0.964 | 0.365 | 0.437 | 0.514 | 0.513 | 0.409 | 0.798 | 0.883 | 0.964 | – | 1.02
22 | NCI-H1975 | – | 0.969 | 1.01 | 0.986 | 0.868 | 0.815 | 1.1 | 1.14 | 0.981 | 0.763 | 0.62 | 0.826 | 0.805 | 0.633 | 0.498 | 0.597 | 0.686 | 0.677 | 0.381 | 0.669
23 | NCI-H1993 | 0.711 | 0.744 | – | 0.8 | 0.664 | 0.835 | 0.889 | 0.834 | 0.836 | 0.849 | 0.598 | 0.482 | 0.551 | 0.568 | 0.554 | 0.674 | 0.697 | 0.689 | 0.68 | 0.716
24 | NCI-H2009 | 1.2 | 1.18 | 1.2 | 1.31 | 1.27 | 0.929 | 1.34 | 0.995 | – | 1.18 | 0.578 | 0.772 | 0.704 | 0.771 | 0.666 | 1.18 | 1.2 | 1.19 | 1.12 | 1.27
25 | NCI-H2023 | 0.709 | 0.594 | 0.754 | 0.788 | 0.582 | 0.912 | 1.09 | 0.998 | 0.814 | 0.91 | 0.341 | 0.437 | 0.399 | 0.398 | 0.289 | 0.638 | 0.584 | 0.64 | 0.516 | 0.697
26 | NCI-H2085 | – | 0.923 | 0.939 | 0.945 | 1.02 | 0.759 | 0.814 | 0.791 | 0.856 | 0.839 | 0.761 | 0.768 | 0.73 | 0.96 | 1.06 | 0.998 | – | 0.988 | 0.978 | 0.992
27 | NCI-H2087 | – | 1.01 | 0.938 | – | 0.889 | – | 1.11 | 1.01 | 1.26 | 1.03 | 0.423 | 0.755 | 0.636 | 0.577 | 0.449 | 0.904 | 1.06 | 1.23 | 1.01 | 1.11
28 | NCI-H2126 | 0.719 | 0.695 | 0.74 | 0.759 | 0.717 | 0.677 | 0.781 | 0.808 | 0.809 | 0.807 | 0.738 | 0.665 | 0.988 | 0.773 | 0.672 | 0.736 | 0.76 | 0.747 | 0.715 | 0.818
